Data: publication PMC9481563, “Structural insights into the pSer/pThr dependent regulation of the SHP2 tyrosine phosphatase in insulin and CD28 signaling” (Nature Communications, 2022)

Target: T1, PTP1B catalytic domain, C215S (Homo sapiens, UniProt P18031, C215S)
T1 sequence (P18031 1-229 C215S): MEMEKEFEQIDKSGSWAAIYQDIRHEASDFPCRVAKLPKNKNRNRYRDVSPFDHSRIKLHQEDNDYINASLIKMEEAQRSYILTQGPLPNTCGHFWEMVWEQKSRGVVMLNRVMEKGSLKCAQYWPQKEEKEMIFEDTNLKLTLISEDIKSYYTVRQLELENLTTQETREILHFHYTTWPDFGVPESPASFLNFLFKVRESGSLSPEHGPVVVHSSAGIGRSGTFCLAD
Assay: biochemical
Assay type: binding
Settings: competitive FP titration vs CF-ppIRS1 100 nM, protein fixed, unlabelled peptide varied; n = 3 technical replicates
Description: The two SH2 domains of PI3KR1 (UniProt P27986; nSH2: 321−433 cSH2: 614–724) were cloned from HEK293T cDNA pool, and subsequently ligated into a modified pET vector encoding maltose binding protein (MBP) tag on the N-terminal and a hexa-His tag on the C-terminal end of the construct. Similarly, the catalytic, tyrosine phosphatase domains of PTPRε (P23469 first domain: 107–399) and PTP1B (P18031; 1–229) were cloned from a HEK293T cDNA pool, and inserted into a pBH4 vector encoding an N-terminal His6 tag (for the final binding experiments, an MBP-tagged version of PTPRε was employed). […] Wild-type C-terminal FLAG-tagged human IRS1 was cloned between HindIII-NotI sites of pcDNA3.1(+) vector (#V79020 Invitrogen, Waltham MA USA). Ser/Ala mutant IRS1 was generated by replacing the region of S616/S636/S666/S736 positions with a cassette carrying S616A/S636A/S666A/S736A mutations. All constructs were validated by complete Sanger sequencing before protein expression and purification. The oligonucleotide sequences used are shown on Supplementary table 4.
Fluorescence polarization was always measured in triplicates, on black Corning low volume round bottom 384-well plates (with 10 ul volumes), using a BioTek Cytatation 5 reader, with the green fluorescent protein (GFP) cube filter set (ex: 485/20, em: 528/20, gain: 50, height: 7.5). Fluorescence polarization data was evaluated on Origin 2018. The dissociation constants (Kd) were determined by using the appropriate quadratic and cubic equations inserted as a user-defined function and applying nonlinear fit until convergence. The fitting formulae are shown at Supplementary note 1. Kd ratio distributions for Fig. 6 were calculated using a Monte-Carlo approach (Supplementary note 2).
Supplementary note 1. Curve fitting of fluorescence polarization (FP) measurements.
To evaluate polarization values from direct and competitive titrations, we used the following fitting formulae in Origin 2018, as detailed below.
Direct titration curves were fitted according to the following formula: […]
Where Imin is the minimal anisotropy, Imax is the (asymptotically estimated) maximal intensity. K0 is the starting concentration of the protein, while T0 is the (fixed) concentration of the labelled peptide and Kd is the dissociation constant.
Competitive titration curves were fitted with a different formula (In addition to those defined above, constants KdT KdB B0 T0 and D0 here refer to the Kd derived from the direct titration, the unknown Kd of the analyte, the labelled peptide concentration, the competitor peptide concentration as well as the protein concentration, respectively).
The ± sign refers to two different scenarios, depending on the sign of discriminant (KdT > KdB or […]). For unknown analytes, the choice of sign is not arbitrary, as the fitting will not converge unless the appropriate formula is chosen: […]
Where A, B and C correspond to the following expressions: […]

| Structure (SMILES) | Kd |
| --- | --- |
| CSCC[C@H](NC(=O)[C@@H]1CCCN1C(=O)[C@H](CCSC)NC(=O)[C@H](Cc1ccc(OP(=O)(O)O)cc1)NC(=O)[C@H](CC(=O)O)NC(=O)CNC(=O)[C@H](CO)NC(=O)CNC(=O)[C@H](CCCCN)NC(=O)[C@H](CCCNC(=N)N)NC(=O)CN)C(=O)N[C@@H](CO)C(=O)N1CCC[C@H]1C(=O)N[C@@H](CCCCN)C(=O)N[C@@H](CO)C(=O)O [p0IRS1] | 1140 ± 85.1 nM |
| CSCC[C@H](NC(=O)[C@@H]1CCCN1C(=O)[C@H](CCSC)NC(=O)[C@H](Cc1ccc(OP(=O)(O)O)cc1)NC(=O)[C@H](CC(=O)O)NC(=O)CNC(=O)[C@H](CO)NC(=O)CNC(=O)[C@H](CCCCN)NC(=O)[C@H](CCCNC(=N)N)NC(=O)CN)C(=O)N[C@@H](COP(=O)(O)O)C(=O)N1CCC[C@H]1C(=O)N[C@@H](CCCCN)C(=O)N[C@@H](CO)C(=O)O [ppIRS1] | 61.3 ± 10.2 nM |
